Experimental findings from ChEMBL document CHEMBL5131475, “Metallo-β-lactamases inhibitor fisetin attenuates meropenem resistance in NDM-1-producing Escherichia coli” (Eur J Med Chem, 2022) are described below.

Holding throughout (type): functional
What all share (settings): time 18-24 hrs

The test system of experiment [1] is Escherichia coli. Put plainly: Antibacterial activity against pET28a-NDM-1 positive Escherichia coli BL21(DE3) isolates assessed as inhibition of bacterial growth incubated for 18 to 24 hrs by CLSI based broth microdilution method. A general note: In broth dilution the organism is exposed to a series of concentrations in liquid medium.
The subject of experiment [2] is Escherichia coli. Put plainly: Antibacterial activity against NDM-1 positive Escherichia coli ZC-YN3 isolates assessed as inhibition of bacterial growth incubated for 18 to 24 hrs by CLSI based broth microdilution method.
Experiment [3] has as its system Escherichia coli. The experiment can be described thus: Antibacterial activity against NDM-1 negative Escherichia coli BL21(DE3) pET28a isolates assessed as inhibition of bacterial growth incubated for 18 to 24 hrs by CLSI based broth microdilution method.
Experiment [4] has as its system Escherichia coli. Put plainly: Antibacterial activity against NDM-1 positive MCR1 carrying Escherichia coli ZJ487 isolates assessed as inhibition of bacterial growth incubated for 18 to 24 hrs by CLSI based broth microdilution method.
Experiment [5] has as its system Escherichia coli. The experiment can be described thus: Antibacterial activity against NDM-1 negative Escherichia coli ATCC25922 isolates assessed as inhibition of bacterial growth incubated for 18 to 24 hrs by CLSI based broth microdilution method.

Converted amounts (≈) assume the structure as drawn.

Usually MIC stands for the smallest concentration in the dilution series that meets the test's criterion for growth inhibition. Regarding `CCC[C@@H]1C[C@@H](C(=O)N[C@@H]([C@H]2O[C@H](SC)[C@H](O)[C@@H](O)[C@H]2O)[C@@H](C)O)N(C)C1` [LINCOMYCIN], the MIC in the experiment on Escherichia coli [1] and in the experiment on Escherichia coli [2] was 1020 µg/mL (≈ 2510 µM) throughout.
As for `CN[C@H](CC(C)C)C(=O)N[C@H]1C(=O)N[C@@H](CC(N)=O)C(=O)N[C@H]2C(=O)N[C@H]3C(=O)N[C@H](C(=O)N[C@H](C(=O)O)c4cc(O)cc(O)c4-c4cc3ccc4O)[C@H](O)c3ccc(c(Cl)c3)Oc3cc2cc(c3O[C@@H]2O[C@H](CO)[C@@H](O)[C@H](O)[C@H]2O[C@H]2C[C@](C)(N)[C@H](O)[C@H](C)O2)Oc2ccc(cc2Cl)[C@H]1O` [VANCOMYCIN], the MIC in the experiment with Escherichia coli [1] was found to be 683 µg/mL (≈ 471 µM); in the experiment on Escherichia coli [2], 512 µg/mL (≈ 353 µM).
The like results for `CO[C@H]1/C=C/O[C@@]2(C)Oc3c(C)c(O)c4c(O)c(c(/C=N/N5CCN(C)CC5)c(O)c4c3C2=O)NC(=O)/C(C)=C\C=C\[C@H](C)[C@H](O)[C@@H](C)[C@@H](O)[C@@H](C)[C@H](OC(C)=O)[C@@H]1C` [RIFAMPIN] were, in that order, 1020 µg/mL (≈ 1240 µM) and 13.3 µg/mL (≈ 16.2 µM).
With `NC[C@H]1O[C@H](O[C@H]2[C@H](O)[C@@H](O[C@H]3O[C@H](CO)[C@@H](O)[C@H](N)[C@H]3O)[C@H](N)C[C@@H]2N)[C@H](O)[C@@H](O)[C@@H]1O` [KANAMYCIN], the MIC was determined as 512 µg/mL (≈ 1060 µM) in the experiment with Escherichia coli [1] and 853 µg/mL (≈ 1760 µM) in the experiment with Escherichia coli [2].
For COLISTIN, in that order: 1.67 µg/mL and 1.33 µg/mL.
For `CS(=O)(=O)c1ccc([C@@H](O)[C@@H](CF)NC(=O)C(Cl)Cl)cc1` [FLORFENICOL], in that order: 1020 µg/mL (≈ 2850 µM) and 427 µg/mL (≈ 1190 µM).
As to `CN[C@@H]1[C@H](O)[C@H](NC)[C@H]2O[C@@]3(O)C(=O)C[C@@H](C)O[C@H]3O[C@@H]2[C@H]1O` [SPECTINOMYCIN], the MIC in the experiment with Escherichia coli [1] was found to be 512 µg/mL (≈ 1540 µM); with Escherichia coli [2] it was 853 µg/mL (≈ 2570 µM).
The like results for `CN(C)[C@@H]1C(O)=C(C(N)=O)C(=O)[C@@]2(O)C(O)=C3C(=O)c4c(O)cccc4[C@@](C)(O)[C@H]3C[C@@H]12` [TETRACYCLINE] were, in that order, 512 µg/mL (≈ 1150 µM) and 128 µg/mL (≈ 288 µM).
The like results for `C[C@@H](O)[C@H]1C(=O)N2C(C(=O)O)=C(SCCNC=N)C[C@H]12` [IMIPENEM ANHYDROUS] were, in that order, 26.7 µg/mL (≈ 89.2 µM) and 26.7 µg/mL (≈ 89.2 µM).
Regarding `CC1(C)S[C@@H]2[C@H](NC(=O)[C@H](N)c3ccccc3)C(=O)N2[C@H]1C(=O)O` [AMPICILLIN], the MIC in the experiment with Escherichia coli [1] and in the experiment with Escherichia coli [2] was 853 µg/mL (≈ 2440 µM) throughout.
With `C[C@H]1c2cccc(O)c2C(=O)C2=C(O)[C@]3(O)C(=O)C(C(N)=O)=C(O)[C@@H](N(C)C)[C@@H]3[C@@H](O)[C@@H]21.O` [DOXYCYCLINE], the minimum inhibitory concentration (MIC) worked out at 128 µg/mL in the experiment on Escherichia coli [1] and 64 µg/mL with Escherichia coli [2].
For the compound `CO/N=C(\C(=O)N[C@@H]1C(=O)N2C(C(=O)O)=C(COC(C)=O)CS[C@H]12)c1csc(N)n1` [CEFOTAXIME], the MIC in the experiment on Escherichia coli [1] and in the experiment on Escherichia coli [2] was 512 µg/mL (≈ 1120 µM) throughout.
For the compound `C[C@@H](O)[C@H]1C(=O)N2C(C(=O)O)=C(S[C@@H]3CN[C@H](C(=O)N(C)C)C3)[C@H](C)[C@H]12` [MEROPENEM], the MIC was found to be 0.01 µg/mL (≈ 0.0261 µM) with Escherichia coli [3]; 21.3 µg/mL (≈ 55.5 µM) with Escherichia coli [4]; 37.3 µg/mL (≈ 97.3 µM) with Escherichia coli [1]; 16 µg/mL (≈ 41.7 µM) with Escherichia coli [2]; 0.01 µg/mL (≈ 0.0261 µM) with Escherichia coli [5].
Consider `CN[C@@H]1[C@H](O[C@H]2[C@H](O[C@H]3[C@H](O)[C@@H](O)[C@H](N=C(N)N)[C@@H](O)[C@@H]3N=C(N)N)O[C@@H](C)[C@]2(O)C=O)O[C@@H](CO)[C@H](O)[C@H]1O` [STREPTOMYCIN], for which the MIC was determined as 53.3 µg/mL (≈ 91.6 µM) with Escherichia coli [1] and 256 µg/mL (≈ 440 µM) in the experiment with Escherichia coli [2].
